In patent US20140094510A1, “NON-AQUEOUS TAXANE NANODISPERSION FORMULATIONS AND METHODS OF USING THE SAME” (Teikoku Pharma USA, Inc., priority 2012, published 2014):

Assay: Solubility of anhydrous docetaxel in PEG 300 / PEG 400
Type: physicochemical
Details: per 1 g PEG 300; ultrasonic dispersion for 5 minutes at 70-80° C.
Protocol: Formulations of anhydrous docetaxel and either PEG 400 or PEG 300 were prepared and mixed using ultrasonic dispersion for 5 minutes at 70-80° C. 1 g of PEG 400 dissolved 25 mg of anhydrous docetaxel. […] 1 g of PEG 300 dissolved 100 mg of anhydrous docetaxel. Accordingly, PEG 300 was able to better solubilize anhydrous docetaxel.

amount of anhydrous docetaxel dissolved by 1 g of PEG 300: ≥ 100 mg
SMILES: CC(=O)O[C@@]12CO[C@@H]1C[C@H](O)[C@@]1(C)C(=O)[C@H](O)C3=C(C)[C@@H](OC(=O)[C@H](O)[C@@H](NC(=O)OC(C)(C)C)c4ccccc4)C[C@@](O)([C@@H](OC(=O)c4ccccc4)[C@H]21)C3(C)C [anhydrous docetaxel, (2R,3S)—N-carboxy-3-phenylisoserine,Ntert-butyl ester, 13-ester with 5β-20-epoxy-1,2α,4,7β,10β,13α-hexahydroxytax-11-en-9-one 4-acetate 2-benzoate]
